The values that follow come from a melting point compilation (Tetko et al.; mined from patent text by program, amines drawn as free bases though some values may be those of a salt).

With `COc1ccccc1Nc1ccc2c(c1)OCc1cc(N)ccc1C2=O`, the melting point was determined as 68.4 °C.
`O=C(Nc1ccccc1-n1cccn1)c1cccc2c1C(=O)c1ccccc1-2` had a melting point of 164 to 166 °C.
For the compound `COC(=O)c1ccc(N2CCCC2=O)c([N+](=O)[O-])c1`, the melting point was in the range of 159 to 161 °C.
Take `O=c1c2cnn(CC3CO3)c2ncn1CC1CO1` (stereo not drawn): the melting point fell in the range of 90 to 95 °C.
As for `CCOC(=O)c1c(N)c(C)nn1C`, the melting point fell in the range of 55.5 to 56.5 °C.
Under `OC1C2CCN(CC2)C1C#Cc1ccc(-c2cccnc2)cc1` (stereo not drawn) stands 189 to 190 °C; under `Nc1nc(NCc2ccccc2)nc(C(F)(F)F)n1`, 183 to 185 °C; under `CNC(=S)NN=C(CCCCl)c1cccnc1`, 100 to 102 °C.
Under `COC(=O)NCCc1cccc(C(=O)C=CN(C)C)c1` stands 95 to 97 °C; under `CCCCCCc1cccc(NC2=NCCS2)c1`, 79 to 80 °C; under `CCS(=O)(=O)N[C@H](C(=O)NCCc1ccc(OCc2ccccc2)cc1)C(C)C`, 133 to 134 °C.
`COC(=O)C(=O)c1ccc(OCCCCSc2ccc3ccccc3c2)cc1` returned a melting point of 64 to 65 °C.
Under `COCOc1c(Br)cccc1-c1ccc2c(c1)C(C)(C)CCC2(C)C` stands 74 °C.
To `CCC(O)CN1N=C(c2ccc(Cl)cc2)C2CCC2C1=O` (stereo not drawn) belongs 116 to 119 °C; to `CCOC(=O)c1c(Cl)nn(C)c1S(=O)(=O)NC(=O)Nc1nc(OC)cc(OC)n1`, 169 to 170 °C.
Under `Cc1cc(C=O)ccc1C=O` stands 71 to 72 °C.
For the compound `CC(=O)OCC=C(C)CS(=O)(=O)c1ccccc1`, the melting point lay within 86 to 92 °C.
Regarding `CCOC(=O)CCc1cnc2c(NC(=O)c3c(Cl)cccc3Cl)cccc2c1`, the melting point is 110 to 111 °C.
As to `CC1C(Cc2ccccc2)C(=O)N(Cc2ccccc2)c2ccccc2N1C(=O)CN1C(=O)c2ccccc2C1=O` (stereo not drawn), the melting point lay in the range of 213 to 214 °C.
Under `CC(C)Oc1ccc2nc(COc3ccc(CC4SC(=O)NC4=O)cc3)n(C)c2n1` (stereo not drawn) stands 210 to 212 °C.
In turn, `CS(=O)(=O)c1ccc(/C(=C\C2CCCCCC2)C(=O)O)cc1` registered a melting point of 164 to 166 °C.
For `Cn1nc(O[C@@H]2c3cc(C(F)(F)C(F)(F)F)ccc3OC(CF)(CF)[C@H]2O)ccc1=O` (relative stereo), the melting point is 189 to 191 °C.
On to `COC(c1cc(C)no1)c1ccccc1COc1cc(Cl)ccc1Cl` (stereo not drawn), for which the melting point was in the range of 78.5 to 79.5 °C.
In the case of `CC(C)(C)OC(=O)C(CO)NC(=O)c1coc(-c2cocn2)n1` (stereo not drawn), the melting point lay within 85 to 87 °C.
Under `COc1ccccc1CS(=O)(=O)Cc1ccccc1OC` stands 90 to 92 °C.
Under `Cc1ccc(Cc2cnc(NCCN(Cc3ccccc3)c3ccccn3)[nH]c2=O)cn1` stands 178 to 182 °C; under `COc1cc2c(cc1OC)CCC(N(Cc1ccccc1)C(=O)c1ccc(C)cc1)=C2`, 183 to 185 °C; under `Cc1cc(NC(=O)c2cnccn2)nc(C)c1[N+](=O)[O-]`, 158 °C.
To `Clc1cccc(-c2onc3ccc(Br)cc23)c1` belongs 163 °C; to `O=C(NC(CO)CO)c1ccc2cc(C(=O)O)[nH]c2c1`, 240 to 245 °C.
`CCS(=O)(=O)c1ccc(Oc2cc(Cl)c(Cl)cc2Cl)nc1`: the melting point fell in the range of 120 to 122 °C.
`CCC(C)NC(C(=O)O)C(C)C` (stereo not drawn) displayed a melting point greater than 300 °C.
To `COC(=O)c1cc(C)cc(OC)c1C1=C(OC)C(=O)c2c(OC(C)=O)cccc2C1=O` belongs 127 to 128 °C; to `COc1ccc(CSc2nnc(-c3ccc4occ(-c5ccc(OC)cc5)c4c3)o2)cc1`, 162 to 163 °C.
To `COc1ccc(C(=O)Sc2ccc(C(=O)O)cc2)cc1C1(C)CCCCC1` belongs 216 to 218 °C; to `CCOc1cc(C(CC(N)=O)N2Cc3ccccc3C2=O)ccc1OC` (stereo not drawn), 169 °C; to `O=C1COCCN1c1ccc(NC[C@H](O)CCl)cc1`, 138 to 139 °C.
Under `COc1cc2c(Nc3ccc(Cl)cc3F)ncnc2cc1OCCOc1ccncc1` stands 200 to 202 °C; under `O=C1c2c(Br)cccc2S(=O)(=O)N1CCl`, 157 to 159 °C.
The compound `COc1ccc(C(=O)Cc2ncccc2C(=O)O)cc1` came in with a melting point of 158 to 163 °C.
To `Cc1cc(Oc2ccc(S(=O)(=O)c3ccc(Cl)cc3)cc2)ccc1N` belongs 200 °C; to `CCCCCCCCCCCCCCc1ccc(CCCCCC)c(OCC(O)CO)c1` (stereo not drawn), 46 to 47 °C; to `Nc1ncnc2c1c(-c1cc(F)c(O)c(F)c1)nn2Cc1oc2ccc(F)cc2c(=O)c1-c1cccc(F)c1`, 274 to 278 °C.
Compound `Cc1occ2c1-c1ccccc1C(=C1CCN(C)CC1)c1ccccc1-2` displayed a melting point of 80 to 86 °C.
The compound `CC1=CC(c2ccccc2Cl)C(c2nnco2)=C(C)N1` (stereo not drawn) had a melting point of 192 to 194 °C.
Turning to `CCOC(=O)C(C)Oc1ncn(-c2ccc(C)cc2)n1` (stereo not drawn), the melting point lay in the range of 69 to 71 °C.
`NC(=O)CNc1ncccc1[N+](=O)[O-]` came in with a melting point of 250 to 251 °C.
Regarding `O=S(c1ccccc1)c1ncc(Cl)cn1` (stereo not drawn), the melting point stood at 115 °C.
Consider `CCCC(=O)ON=C(c1ccccc1)c1cc(C(C)(C)C)c(O)c(C(C)(C)C)c1`, for which the melting point lay within 118 to 119 °C.
To `CCC(C)Cn1c(=O)n(C)c(=O)c2c1nc(C)n2C(=O)OC` (stereo not drawn) belongs 110 to 112 °C; to `CCOC(OCC)c1ccccc1CN(CCn1ccc2oc(C)cc2c1=O)Cc1ccc2c(c1)N(C)C(=O)C(C)(C)C(=O)N2CC`, 138 to 139 °C.
In turn, `O=C1N(c2c(Cl)cccc2Cl)Cc2cnc(NCC3CCCCC3)nc2N1c1ccccc1` gave a melting point of 229 to 233 °C.
In turn, `CC(C)(C)c1ccc(CSc2nc3cnccc3[nH]2)cc1` registered a melting point of 207 to 208 °C.
In turn, `COC(=O)c1nc(Cl)cc(N)c1OC` came in with a melting point of 78 to 79 °C.
Under `O=c1oc2ccccc2n1CCCl` stands 77 to 79 °C.
The compound `CC(=O)NCc1ccc(CN2CCN(c3ncccn3)CC2)cc1` registered a melting point of 120 to 121 °C.
Under `CC(C)OC(=O)Nc1cc(-c2ccnc3c(C(=O)c4cccs4)cnn23)ccc1N(C)C` stands 164 to 165 °C; under `CCOC(=O)c1nc2cc(Br)c(Cl)cc2[nH]c1=O`, 203 to 205 °C.
Turning to `CC1(C)COc2ccc(C[C@@H](NC(=O)c3cccc4c(Cl)cccc34)[C@@H](O)c3cccc(Cl)c3)cc21` (racemic), the melting point was 191 to 192 °C.
`CC(C)(O)c1cnc2c(NC(=O)c3c(Cl)cccc3Cl)cccc2c1` came in with a melting point of 187 to 189 °C.
In the case of `O=C(Nc1cnc(-n2nc(C(F)(F)F)cc2C2CC2)nc1)c1c(F)cccc1F`, the melting point is 280 to 281 °C.
Compound `CC(=O)c1c(F)cc2c(=O)c(C(=O)O)cn(CCF)c2c1F` had a melting point of 215 to 216 °C.
In turn, `COc1cccc2c1CC(C(=O)NCCOc1ccc(C(=O)OC(C)(C)C)cc1)N2S(=O)(=O)c1ccc(-c2ccc(F)cc2F)cc1` (stereo not drawn) came in with a melting point of 135 °C.
`CC(CCC(=O)OC1CCCCC1)C1CC=C2C3=C(CCC21C)C1(C)CCC(O)C(C)(C)C1CC3` (stereo not drawn) registered a melting point of 130 to 132 °C.
In turn, `CCOC(=O)c1nnc(N2CCN(c3ccc(N4CC(CNC(C)=O)OC4=O)cc3)CC2F)s1` (stereo not drawn) showed a melting point of 228 to 230 °C.
On to `O=C(O)CCCCCCc1ccc2ccccc2c1[N+](=O)[O-]`, for which the melting point lay in the range of 84 to 89 °C.
In turn, `CNC(=O)C(=NOC)c1ccccc1COc1ncc(Sc2ccccc2)cc1Cl` registered a melting point of 84 to 86 °C.
Consider `COc1ccccc1N1CCN(CCCNC(=O)c2cccc3c2OC(C2CCCCC2)CC3)CC1` (stereo not drawn), for which the melting point fell in the range of 79 to 83 °C.
`CCCc1c2nc(C(=O)Nc3ccccc3)cc(Cl)c2cc2c(=O)cc(C(=O)Nc3ccccc3)oc12`: the melting point was greater than 315 °C.
Regarding `NCCCn1nc2c3c(c(Cl)ccc31)C(=O)c1c(OCc3ccccc3)ccc(OCc3ccccc3)c1-2`, the melting point lay in the range of 180 to 184 °C.
To `CN(C(=O)CCCOc1ccc2nc3n(c(=O)c2c1)CS(=O)(=O)N3)C1CCCCC1` belongs greater than 330 °C; to `CCCCCCCCCCCCSC(CCC)C(=O)Nc1cc(C)c(O)c(C)c1C` (stereo not drawn), 116 °C.
To `CS(=O)(=O)c1ccc(-c2nc(-c3ccccc3)nn2-c2ccc(Cl)cc2)cc1` belongs 170 °C; to `Cc1nc(-c2c(C)c(C#N)c3nc(C4CC4)oc3c2N2CC[C@H](N(C)C)C2)cs1`, 167 to 168 °C.
To `COc1ccc(NC(=O)Nc2ccccc2)cc1` belongs 196 to 198 °C; to `CC[C@@H]1O[C@](/C=C/C2CC2)(C(F)(F)F)c2cc(F)ccc2NC1=O` (relative stereo), 148 to 149 °C.
`Cc1ccc(C(=O)c2ccc(F)cc2)s1` came in with a melting point of 68 °C.
As for `COC(=O)c1nc(C)[nH]c1C(=O)OC`, the melting point is 138 to 140 °C.
Under `O=C(NCCc1ccccn1)c1ccc(S(=O)(=O)Nc2cccc3c(Cl)c[nH]c23)cc1` stands 220 to 222 °C; under `O=C1c2ccccc2C(=O)N1CC(Cl)(CCl)c1ccccc1` (stereo not drawn), 114 to 115 °C.
Turning to `CCCCCC(CC(=O)Nc1cc(C(N)=O)ccc1C(C)(C)C)c1cc(Br)c(OC)cc1OC` (stereo not drawn), the melting point was 102 to 104 °C.
`O=c1[nH]c2ccc(Cl)cc2n1-c1cccc(Cl)c1` gave a melting point of 112 °C.
To `OCc1conc1-c1ccc(C(F)(F)F)cc1` belongs 70 to 71 °C; to `c1ccc(-c2cc3ccccc3o2)nc1`, 86 to 87 °C.
In turn, `CCC[C@H](NC(=O)Cc1cc(F)cc(F)c1)C(=O)Nc1ncc(-c2ccc(OC)cc2COC(C)C)s1` came in with a melting point of 73.9 °C.
Under `CCOC(=O)c1c2n(c3c(F)c(N4CCC(NC(=O)OC(C)(C)C)C4)c(F)cc3c1=O)C(C)S2` (stereo not drawn) stands 174 to 176 °C.
To `CC1CCNC(=C2C(=O)CC(C)(C)CC2=O)N1` (stereo not drawn) belongs 164 to 165 °C; to `Nc1ccc(-c2cnc3c(c2)N(Cc2c(F)ccc(F)c2Cl)CCN3)cn1`, greater than 200 °C.
